Laboratory results reported in patent US10640495B2, “Heterocycle derivatives having TrkA inhibitory activity” (Shionogi & Co., Ltd., priority 2015, dated 2020).

Target: human TrkA (Homo sapiens (Human), UniProt P04629)
Assay: Human TrkA inhibition assay (Test Example 2)
Type: biochemical
Conditions: Table 154, human TrkA inhibition; read-out: IC50
Procedure, shortened: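 Mobility-shift readout of phosphorylated versus unphosphorylated fluorescent peptide gave conversion ratio, normalized to DMSO and no-enzyme wells; IC50 by logistic fit of 10- or 15-point 3-fold dilutions. Conditions: 1 nmol/L enzyme, 15 min compound preincubation, then 500 μmol/L ATP plus 1.5 μmol/L peptide, 120 min, 37 °C.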

Chain of human TrkA (P04629 440-796): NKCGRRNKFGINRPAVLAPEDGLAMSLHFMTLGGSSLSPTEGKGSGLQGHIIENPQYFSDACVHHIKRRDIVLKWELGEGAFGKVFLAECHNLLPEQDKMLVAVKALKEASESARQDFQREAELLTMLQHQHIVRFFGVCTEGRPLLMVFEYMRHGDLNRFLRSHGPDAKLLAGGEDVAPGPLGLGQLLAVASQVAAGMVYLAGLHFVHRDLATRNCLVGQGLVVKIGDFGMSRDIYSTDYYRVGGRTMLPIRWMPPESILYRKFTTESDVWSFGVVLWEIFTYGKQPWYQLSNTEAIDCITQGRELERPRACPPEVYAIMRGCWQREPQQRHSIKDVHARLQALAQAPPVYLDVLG

IC50	Compound
100 to 1000 nM	Cc1c(-c2cnn(C)c2)nn(-c2ccccc2)c1NC(=O)N[C@@H]1CN(CC(F)(F)F)O[C@H]1c1ccc(F)c(F)c1 (racemic) [Compound I-304]
< 100 nM	Cc1c(-c2cnc3c(cnn3C)c2)nn(-c2ccccc2)c1NC(=O)N[C@@H]1CN(CC(F)(F)F)O[C@H]1c1ccc(F)c(F)c1 (racemic) [Compound I-305]
< 100 nM	COCCN1C[C@@H](NC(=O)Nc2c(C)c(-c3cnc4c(c3)NCCO4)nn2-c2ccccc2)[C@H](c2ccnc(F)c2)O1 (racemic) [Compound I-306]
< 100 nM	COCCN1C[C@@H](NC(=O)Nc2c(C)c(-c3cnc(OC)c(C#N)c3)nn2-c2ccccc2)[C@H](c2ccnc(F)c2)O1 (racemic) [Compound I-307]
< 100 nM	COCCN1C[C@@H](NC(=O)Nc2c(C)c(-c3cnc(OC)c(C(C)(C)O)c3)nn2-c2ccccc2)[C@H](c2ccnc(F)c2)O1 (racemic) [Compound I-308]
< 100 nM	COCCN1C[C@@H](NC(=O)Nc2c(C)c(-c3cnc(C(N)=O)c(F)c3)nn2-c2ccccc2)[C@H](c2cnc(F)c(F)c2)O1 (racemic) [Compound I-311]
< 100 nM	COCCN1C[C@@H](NC(=O)Nc2c(C)c(-c3cnc(C(N)=O)c(Cl)c3)nn2-c2ccccc2)[C@H](c2ccnc(F)c2)O1 (racemic) [Compound I-316]
< 100 nM	COCCN1C[C@@H](NC(=O)Nc2c(C)c(-c3cnc(C(N)=O)c(OC)c3)nn2-c2ccccc2)[C@H](c2ccnc(F)c2)O1 (racemic) [Compound I-317]
< 100 nM	COCCN1C[C@@H](NC(=O)Nc2c(C)c(-c3cnc(OC)c(C(=O)NOCC(C)(C)O)c3)nn2-c2ccccc2)[C@H](c2cnc(F)c(F)c2)O1 (racemic) [Compound I-318]

Same assay, conditions: Table 155, human TrkA inhibition; read-out: IC50

IC50	Compound
< 100 nM	COCCN1C[C@@H](NC(=O)Nc2c(C)c(-c3cnc4c(c3)ncn4C)nn2-c2ccccc2)[C@H](c2cc(F)nc(F)c2)O1 (racemic) [Compound I-320]
< 100 nM	COCCN1C[C@@H](NC(=O)Nc2c(C)c(-c3cnc(N4CC(O)C4)nc3)nn2-c2ccccc2)[C@H](c2cc(F)nc(F)c2)O1 (racemic) [Compound I-321]
< 100 nM	COCCN1C[C@@H](NC(=O)Nc2c(C)c(-c3ccc(OC)nc3)nn2-c2ccccc2)[C@H](c2ccnc(F)c2)O1 (racemic) [Compound I-323]
< 100 nM	COCCN1C[C@@H](NC(=O)Nc2c(C)c(-c3cnc(N4CCOCC4)nc3)nn2-c2ccccc2)[C@H](c2ccnc(F)c2)O1 (racemic) [Compound I-324]
< 100 nM	COCCN1C[C@@H](NC(=O)Nc2c(C)c(-c3cnc4c(c3)N3C(=O)OCC3CO4)nn2-c2ccccc2)[C@H](c2ccnc(F)c2)O1 (mixture of isomers) [Compound I-326]
< 100 nM	COCCN1C[C@@H](NC(=O)Nc2c(C)c(-c3ccc(C)nc3)nn2-c2ccccc2)[C@H](c2ccnc(F)c2)O1 (racemic) [Compound I-327]
< 100 nM	COCCN1C[C@@H](NC(=O)Nc2c(C)c(-c3cnc(OC(F)F)nc3)nn2-c2ccccc2)[C@H](c2ccnc(F)c2)O1 (racemic) [Compound I-328]
< 100 nM	COCCN1C[C@@H](NC(=O)Nc2c(C)c(-c3cnc4nn(C(F)F)cc4c3)nn2-c2ccccc2)[C@H](c2ccnc(F)c2)O1 (racemic) [Compound I-331]
< 100 nM	COCCN1C[C@@H](NC(=O)Nc2c(C)c(N3CC(c4ccc(F)cc4)C3)nn2-c2ccccc2)[C@H](c2ccnc(F)c2)O1 (racemic) [Compound I-335]
< 100 nM	COCCN1C[C@@H](NC(=O)Nc2c(C)c(N3CC(c4ccc(F)cc4)C3)nn2-c2ccccc2)[C@H](c2cnc(F)c(F)c2)O1 (racemic) [Compound I-336]
< 100 nM	COCCN1C[C@@H](NC(=O)Nc2c(C)c(-c3cnc4c(c3)OCC(=O)N4)nn2-c2ccccc2)[C@H](c2cnc(F)c(F)c2)O1 (racemic) [Compound I-337]
< 100 nM	COCCN1C[C@@H](NC(=O)Nc2c(C)c(-c3cnc4c(c3)N(C)C(CO)CO4)nn2-c2ccccc2)[C@H](c2ccnc(F)c2)O1 (mixture of isomers) [Compound I-338]
< 100 nM	COCCN1C[C@@H](NC(=O)Nc2c(C)c(-c3cnc(C(=O)NC4CC4)c(OC)c3)nn2-c2ccccc2)[C@H](c2ccnc(F)c2)O1 (racemic) [Compound I-339]
< 100 nM	COCCN1C[C@@H](NC(=O)Nc2c(C)c(-c3cnc4c(c3)N(C)CCO4)nn2-c2ccccc2)[C@H](c2ccnc(F)c2)O1 (racemic) [Compound I-340]
< 100 nM	COCCN1C[C@@H](NC(=O)Nc2c(C)c(-c3cnc4c(c3)N(C(C)=O)CCO4)nn2-c2ccccc2)[C@H](c2ccnc(F)c2)O1 (racemic) [Compound I-341]
< 100 nM	COCCN1C[C@@H](NC(=O)Nc2c(C)c(-c3cnc4c(c3)CN(C)C4=O)nn2-c2ccccc2)[C@H](c2ccnc(F)c2)O1 (racemic) [Compound I-343]
< 100 nM	COCCN1C[C@@H](NC(=O)Nc2c(C)c(-n3cnc(C)c3)nn2-c2ccccc2)[C@H](c2ccnc(F)c2)O1 (racemic) [Compound I-346]
< 100 nM	COCCN1C[C@@H](NC(=O)Nc2c(C)c(-c3ccc4nc(CO)cn4c3)nn2-c2ccccc2)[C@H](c2ccnc(F)c2)O1 (racemic) [Compound I-347]
< 100 nM	COCCN1C[C@@H](NC(=O)Nc2c(C)c(-c3cc(C)c4nccn4c3)nn2-c2ccccc2)[C@H](c2ccnc(F)c2)O1 (racemic) [Compound I-348]
< 100 nM	COCCN1C[C@@H](NC(=O)Nc2c(C)c(-c3ccc(C)nc3F)nn2-c2ccccc2)[C@H](c2ccnc(F)c2)O1 (racemic) [Compound I-350]
< 100 nM	COCCN1C[C@@H](NC(=O)Nc2c(C)c(-c3cnc4c(c3)CCN4)nn2-c2ccccc2)[C@H](c2ccnc(F)c2)O1 (racemic) [Compound I-351]
< 100 nM	COCCN1C[C@@H](NC(=O)Nc2c(C)c(-c3cnc(OC)cn3)nn2-c2ccccc2)[C@H](c2ccnc(F)c2)O1 (racemic) [Compound I-352]
< 100 nM	CCC(O)(CC)c1cc(-c2nn(-c3ccccc3)c(NC(=O)N[C@@H]3CN(CCOC)O[C@H]3c3ccnc(F)c3)c2C)cnc1OC (racemic) [Compound I-354]
< 100 nM	COCCN1C[C@@H](NC(=O)Nc2c(C)c(-c3cnc(OC)c(C4(O)CC4)c3)nn2-c2ccccc2)[C@H](c2ccnc(F)c2)O1 (racemic) [Compound I-355]
< 100 nM	COCCN1C[C@@H](NC(=O)Nc2c(C)c(-c3cnc4c(c3)NC(=O)CN4)nn2-c2ccccc2)[C@H](c2ccnc(F)c2)O1 (racemic) [Compound I-357]
< 100 nM	COCCN1C[C@@H](NC(=O)Nc2c(C)c(-c3cnc(C4(O)COC4)nc3)nn2-c2ccccc2)[C@H](c2ccnc(F)c2)O1 (racemic) [Compound I-360]

Same assay, conditions: human TrkA 1 nmol/L, ATP 500 μmol/L, 120 min at 37° C.; read-out: IC50 values (TrkA phosphorylation inhibition)

IC50	Compound
1.5 nM	COCCN1C[C@@H](NC(=O)Nc2c(C)c(-c3cnc4c(c3)CC(=O)N4C)nn2-c2ccccc2)[C@H](c2cnc(F)c(F)c2)O1 (racemic) [Compound I-303]
2 nM	COCCN1C[C@@H](NC(=O)Nc2c(C)c(-c3ccc4nc(C(N)=O)cn4c3)nn2-c2ccccc2)[C@H](c2cnc(F)c(F)c2)O1 (racemic) [Compound I-309]
3.6 nM	CNC(=O)c1ncc(-c2nn(-c3ccccc3)c(NC(=O)N[C@@H]3CN(CCOC)O[C@H]3c3cnc(F)c(F)c3)c2C)cc1F (racemic) [Compound I-313]
1.5 nM	COCCN1C[C@@H](NC(=O)Nc2c(C)c(-c3cnc4c(c3)NCC(=O)N4)nn2-c2ccccc2)[C@H](c2ccnc(F)c2)O1 (racemic) [Compound I-356]
